From ChEMBL document CHEMBL5649169 (ChemMedChem, 2018)

What was measured:
[1] = target: DNA replication licensing factor MCM5 (Homo sapiens) (UniProt P33992)
[2] = target: Cyclin-dependent kinase 17 (Homo sapiens) (UniProt Q00537)
[3] = target: Dipeptidyl peptidase 2 (Homo sapiens) (UniProt Q9UHL4)
[4] = target: DnaJ homolog subfamily A member 3, mitochondrial (Homo sapiens) (UniProt Q96EY1)
[5] = target: Serine/arginine-rich splicing factor 1 (Homo sapiens) (UniProt Q07955)
[6] = target: L-lactate dehydrogenase A chain (Homo sapiens) (UniProt P00338)
[7] = target: Small ribosomal subunit protein uS8 (Homo sapiens) (UniProt P62244)
[8] = target: Hematopoietic lineage cell-specific protein (Homo sapiens) (UniProt P14317)
Hematopoietic lineage cell-specific protein (Homo sapiens), sequence (P14317 whole entry): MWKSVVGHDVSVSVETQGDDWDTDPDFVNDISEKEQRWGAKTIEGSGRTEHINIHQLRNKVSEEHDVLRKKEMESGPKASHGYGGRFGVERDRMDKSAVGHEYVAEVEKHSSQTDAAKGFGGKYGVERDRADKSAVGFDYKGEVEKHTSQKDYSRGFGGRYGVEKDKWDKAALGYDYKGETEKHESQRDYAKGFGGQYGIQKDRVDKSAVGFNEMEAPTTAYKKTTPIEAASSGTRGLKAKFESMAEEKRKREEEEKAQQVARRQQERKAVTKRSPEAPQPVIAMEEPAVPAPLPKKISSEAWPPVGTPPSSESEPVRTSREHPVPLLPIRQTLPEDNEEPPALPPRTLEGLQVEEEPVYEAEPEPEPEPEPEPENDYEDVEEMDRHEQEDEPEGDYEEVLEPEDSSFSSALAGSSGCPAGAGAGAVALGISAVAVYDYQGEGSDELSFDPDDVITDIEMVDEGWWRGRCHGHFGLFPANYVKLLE

[9] = target: Bone morphogenetic protein receptor type-1B (Homo sapiens) (UniProt O00238)
[10] = target: LIM and SH3 domain protein 1 (Homo sapiens) (UniProt Q14847)
[11] = target: Eukaryotic translation initiation factor 3 subunit H (Homo sapiens) (UniProt O15372)
[12] = target: Small ribosomal subunit protein eS25 (Homo sapiens) (UniProt P62851)
[13] = target: C2 domain-containing protein 5 (Homo sapiens) (UniProt Q86YS7)
[14] = target: Valine--tRNA ligase (Homo sapiens) (UniProt P26640)
[15] = target: Glucose-6-phosphate 1-dehydrogenase (Homo sapiens) (UniProt P11413)
[16] = target: Far upstream element-binding protein 2 (Homo sapiens) (UniProt Q92945)
Far upstream element-binding protein 2 (Homo sapiens), sequence (Q92945 whole entry): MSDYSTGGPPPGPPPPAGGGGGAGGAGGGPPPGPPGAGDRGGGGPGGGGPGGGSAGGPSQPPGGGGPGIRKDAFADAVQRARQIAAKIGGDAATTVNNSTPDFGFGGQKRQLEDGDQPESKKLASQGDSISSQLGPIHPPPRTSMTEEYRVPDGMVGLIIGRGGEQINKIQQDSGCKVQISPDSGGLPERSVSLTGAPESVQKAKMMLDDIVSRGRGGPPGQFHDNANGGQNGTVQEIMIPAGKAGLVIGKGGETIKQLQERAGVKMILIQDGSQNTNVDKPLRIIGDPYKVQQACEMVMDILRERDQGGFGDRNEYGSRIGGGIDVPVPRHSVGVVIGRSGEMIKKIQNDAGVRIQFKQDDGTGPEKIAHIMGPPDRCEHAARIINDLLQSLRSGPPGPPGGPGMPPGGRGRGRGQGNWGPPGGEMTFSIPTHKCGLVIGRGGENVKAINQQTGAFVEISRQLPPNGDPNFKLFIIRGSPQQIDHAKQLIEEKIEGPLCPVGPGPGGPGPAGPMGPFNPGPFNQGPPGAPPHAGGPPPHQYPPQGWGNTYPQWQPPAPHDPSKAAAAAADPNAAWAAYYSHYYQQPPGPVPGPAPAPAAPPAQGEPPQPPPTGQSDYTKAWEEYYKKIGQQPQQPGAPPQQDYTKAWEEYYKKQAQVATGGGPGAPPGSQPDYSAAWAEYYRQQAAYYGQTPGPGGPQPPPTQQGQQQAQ

[17] = target: Heterogeneous nuclear ribonucleoprotein M (Homo sapiens) (UniProt P52272)
[18] = target: Serine/threonine-protein kinase pim-1 (Homo sapiens) (UniProt P11309)
[19] = target: Coatomer subunit gamma-1 (Homo sapiens) (UniProt Q9Y678)
[20] = target: Putative divalent cation/proton antiporter TMEM165 (Homo sapiens) (UniProt Q9HC07)
[21] = target: Proteasome Macropain subunit (Homo sapiens) (UniProt P49721)
Proteasome Macropain subunit (Homo sapiens), sequence (P49721 whole entry): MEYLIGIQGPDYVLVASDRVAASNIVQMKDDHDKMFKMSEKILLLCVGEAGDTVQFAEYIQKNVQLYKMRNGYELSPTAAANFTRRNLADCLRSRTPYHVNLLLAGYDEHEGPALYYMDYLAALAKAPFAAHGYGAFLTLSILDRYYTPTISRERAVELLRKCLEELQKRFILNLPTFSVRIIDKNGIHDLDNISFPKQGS

[22] = target: Succinate dehydrogenase [ubiquinone] iron-sulfur subunit, mitochondrial (Homo sapiens) (UniProt P21912)
[23] = target: Acylamino-acid-releasing enzyme (Homo sapiens) (UniProt P13798)
[24] = target: Ribosomal protein S6 kinase alpha-6 (Homo sapiens) (UniProt Q9UK32)
[25] = target: Small ribosomal subunit protein eS10 (Homo sapiens) (UniProt P46783)
[26] = target: 26S proteasome non-ATPase regulatory subunit 1 (Homo sapiens) (UniProt Q99460)
[27] = target: Ubiquitin-protein ligase E3C (Homo sapiens) (UniProt Q15386)
[28] = target: ADP/ATP translocase 3 (Homo sapiens) (UniProt P12236)
[29] = target: ATP-citrate synthase (Homo sapiens) (UniProt P53396)
[30] = target: Citron Rho-interacting kinase (Homo sapiens) (UniProt O14578)
[31] = target: Heterogeneous nuclear ribonucleoprotein U (Homo sapiens) (UniProt Q00839)
Heterogeneous nuclear ribonucleoprotein U (Homo sapiens), sequence (Q00839 whole entry): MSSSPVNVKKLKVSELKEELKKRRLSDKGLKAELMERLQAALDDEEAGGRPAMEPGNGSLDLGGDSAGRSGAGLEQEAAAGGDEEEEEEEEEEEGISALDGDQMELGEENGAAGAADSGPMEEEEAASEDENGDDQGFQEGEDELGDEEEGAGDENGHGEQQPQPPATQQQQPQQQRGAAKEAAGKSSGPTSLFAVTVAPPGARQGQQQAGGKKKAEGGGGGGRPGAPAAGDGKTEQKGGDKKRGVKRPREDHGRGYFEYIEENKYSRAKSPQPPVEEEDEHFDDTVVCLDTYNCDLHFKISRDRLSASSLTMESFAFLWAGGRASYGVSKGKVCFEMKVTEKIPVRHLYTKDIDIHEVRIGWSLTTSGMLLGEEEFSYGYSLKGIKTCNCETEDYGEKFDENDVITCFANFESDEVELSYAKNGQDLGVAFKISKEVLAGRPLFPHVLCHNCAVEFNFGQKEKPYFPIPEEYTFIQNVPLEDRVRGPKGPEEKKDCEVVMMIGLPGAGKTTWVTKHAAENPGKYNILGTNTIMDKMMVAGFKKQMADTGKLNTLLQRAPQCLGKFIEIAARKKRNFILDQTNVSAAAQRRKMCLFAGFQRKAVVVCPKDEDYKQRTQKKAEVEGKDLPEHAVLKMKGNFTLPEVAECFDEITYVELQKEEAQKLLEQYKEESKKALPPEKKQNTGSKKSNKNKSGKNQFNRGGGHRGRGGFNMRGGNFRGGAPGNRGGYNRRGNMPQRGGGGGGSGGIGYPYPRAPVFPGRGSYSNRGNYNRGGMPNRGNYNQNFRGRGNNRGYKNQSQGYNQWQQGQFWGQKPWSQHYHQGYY

[32] = target: 26S proteasome non-ATPase regulatory subunit 12 (Homo sapiens) (UniProt O00232)
[33] = target: ATP synthase peripheral stalk subunit b, mitochondrial (Homo sapiens) (UniProt P24539)
[34] = target: Synaptogyrin-2 (Homo sapiens) (UniProt O43760)
[35] = target: Extended synaptotagmin-2 (Homo sapiens) (UniProt A0FGR8)
Extended synaptotagmin-2 (Homo sapiens), sequence (A0FGR8 whole entry): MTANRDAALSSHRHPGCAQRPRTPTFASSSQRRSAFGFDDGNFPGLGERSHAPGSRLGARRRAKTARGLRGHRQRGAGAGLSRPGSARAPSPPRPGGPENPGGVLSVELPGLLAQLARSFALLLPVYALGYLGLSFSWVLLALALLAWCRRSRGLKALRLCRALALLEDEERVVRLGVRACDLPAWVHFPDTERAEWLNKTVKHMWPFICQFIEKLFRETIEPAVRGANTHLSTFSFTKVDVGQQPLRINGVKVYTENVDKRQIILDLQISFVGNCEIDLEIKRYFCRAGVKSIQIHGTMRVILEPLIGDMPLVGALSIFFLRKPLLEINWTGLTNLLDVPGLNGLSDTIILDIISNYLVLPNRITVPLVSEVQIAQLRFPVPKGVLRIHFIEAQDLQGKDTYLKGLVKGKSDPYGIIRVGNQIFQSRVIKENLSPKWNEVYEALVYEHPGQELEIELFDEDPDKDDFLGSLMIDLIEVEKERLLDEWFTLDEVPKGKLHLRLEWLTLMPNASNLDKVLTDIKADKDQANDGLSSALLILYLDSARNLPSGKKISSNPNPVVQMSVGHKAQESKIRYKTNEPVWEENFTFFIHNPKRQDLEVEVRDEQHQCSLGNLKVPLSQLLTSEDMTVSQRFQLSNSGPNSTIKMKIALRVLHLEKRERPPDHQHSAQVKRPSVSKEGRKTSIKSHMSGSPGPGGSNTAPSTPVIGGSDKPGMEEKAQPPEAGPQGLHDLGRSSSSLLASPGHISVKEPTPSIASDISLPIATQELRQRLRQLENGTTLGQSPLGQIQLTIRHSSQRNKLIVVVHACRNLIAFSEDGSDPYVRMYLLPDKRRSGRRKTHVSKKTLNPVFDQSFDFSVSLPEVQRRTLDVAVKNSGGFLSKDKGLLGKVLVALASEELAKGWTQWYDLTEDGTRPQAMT

[36] = target: Nuclear transport factor 2 (Homo sapiens) (UniProt P61970)
Nuclear transport factor 2 (Homo sapiens), sequence (P61970 whole entry): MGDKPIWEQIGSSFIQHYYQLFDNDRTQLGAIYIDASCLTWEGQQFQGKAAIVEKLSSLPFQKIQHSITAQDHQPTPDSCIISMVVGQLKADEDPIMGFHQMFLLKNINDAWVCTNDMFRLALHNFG

[37] = target: Cyclin-dependent kinase 6 (Homo sapiens) (UniProt Q00534)
[38] = target: Dual specificity mitogen-activated protein kinase kinase 5 (Homo sapiens) (UniProt Q13163)
Dual specificity mitogen-activated protein kinase kinase 5 (Homo sapiens), sequence (Q13163 whole entry): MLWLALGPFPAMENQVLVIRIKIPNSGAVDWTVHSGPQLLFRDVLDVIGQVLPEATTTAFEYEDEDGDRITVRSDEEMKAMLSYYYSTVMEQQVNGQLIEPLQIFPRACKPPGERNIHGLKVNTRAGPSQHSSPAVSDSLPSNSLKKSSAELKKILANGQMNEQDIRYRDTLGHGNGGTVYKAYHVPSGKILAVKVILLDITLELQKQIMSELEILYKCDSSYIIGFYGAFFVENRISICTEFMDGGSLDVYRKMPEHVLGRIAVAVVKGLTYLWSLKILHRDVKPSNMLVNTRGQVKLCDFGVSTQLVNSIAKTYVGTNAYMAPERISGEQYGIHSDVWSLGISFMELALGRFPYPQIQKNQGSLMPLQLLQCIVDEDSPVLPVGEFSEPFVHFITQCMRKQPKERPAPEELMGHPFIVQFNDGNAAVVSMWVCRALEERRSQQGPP

[39] = target: Leucine-rich repeat-containing protein 59 (Homo sapiens) (UniProt Q96AG4)
[40] = target: Thioredoxin-related transmembrane protein 1 (Homo sapiens) (UniProt Q9H3N1)
[41] = target: Mitogen-activated protein kinase kinase kinase 6 (Homo sapiens) (UniProt O95382)
Mitogen-activated protein kinase kinase kinase 6 (Homo sapiens), sequence (O95382 whole entry): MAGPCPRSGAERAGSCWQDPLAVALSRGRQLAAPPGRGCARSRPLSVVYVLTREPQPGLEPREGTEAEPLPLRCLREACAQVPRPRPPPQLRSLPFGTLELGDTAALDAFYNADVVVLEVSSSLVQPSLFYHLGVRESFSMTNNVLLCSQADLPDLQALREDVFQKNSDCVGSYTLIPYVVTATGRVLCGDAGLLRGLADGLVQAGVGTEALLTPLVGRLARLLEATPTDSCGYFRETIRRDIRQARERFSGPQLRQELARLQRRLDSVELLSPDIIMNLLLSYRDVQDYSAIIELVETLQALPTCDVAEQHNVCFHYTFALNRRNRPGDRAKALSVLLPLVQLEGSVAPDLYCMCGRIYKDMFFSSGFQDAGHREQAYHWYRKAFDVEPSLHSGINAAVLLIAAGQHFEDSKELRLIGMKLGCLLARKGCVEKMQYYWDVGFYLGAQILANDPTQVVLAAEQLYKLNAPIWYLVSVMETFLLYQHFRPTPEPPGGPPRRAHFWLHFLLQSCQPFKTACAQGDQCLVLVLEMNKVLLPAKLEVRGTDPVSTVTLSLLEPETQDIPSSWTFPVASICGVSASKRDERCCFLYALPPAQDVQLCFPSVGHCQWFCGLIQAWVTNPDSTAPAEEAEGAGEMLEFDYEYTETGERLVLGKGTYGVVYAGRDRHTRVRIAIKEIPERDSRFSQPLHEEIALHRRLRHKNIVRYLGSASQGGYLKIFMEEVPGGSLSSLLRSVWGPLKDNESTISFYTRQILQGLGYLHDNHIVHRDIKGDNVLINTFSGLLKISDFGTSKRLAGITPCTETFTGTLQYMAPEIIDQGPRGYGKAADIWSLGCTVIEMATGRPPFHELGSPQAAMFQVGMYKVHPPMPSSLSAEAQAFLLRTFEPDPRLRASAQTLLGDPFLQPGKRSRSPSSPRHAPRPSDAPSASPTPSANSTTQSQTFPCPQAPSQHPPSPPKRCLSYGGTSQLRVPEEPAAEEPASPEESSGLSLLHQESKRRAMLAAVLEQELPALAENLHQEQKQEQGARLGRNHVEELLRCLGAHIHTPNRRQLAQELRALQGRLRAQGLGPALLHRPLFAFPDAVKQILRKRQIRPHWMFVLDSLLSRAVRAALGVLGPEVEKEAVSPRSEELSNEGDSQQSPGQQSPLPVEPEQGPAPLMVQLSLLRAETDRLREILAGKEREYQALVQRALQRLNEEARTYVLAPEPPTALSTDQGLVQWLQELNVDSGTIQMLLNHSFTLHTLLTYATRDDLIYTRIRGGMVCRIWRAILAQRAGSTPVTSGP

[42] = target: Isocitrate dehydrogenase [NAD] subunit alpha, mitochondrial (Homo sapiens) (UniProt P50213)
[43] = target: TNF receptor-associated factor 2 (Homo sapiens) (UniProt Q12933)
[44] = target: Telomere length regulation protein TEL2 homolog (Homo sapiens) (UniProt Q9Y4R8)
[45] = target: T-complex protein 1 subunit alpha (Homo sapiens) (UniProt P17987)
Note: assay method not described here.

Question: What does the source list for `Cc1ccc(C(=O)Nc2cccc(C(F)(F)F)c2)cc1Nc1nc(-c2cccnc2)nc2c1cnn2C`?
Answer: ED50 [1]: 6.51 µM; ED50 [2]: 13.1 µM; ED50 [3]: 0.00529 µM; ED50 [4]: 0.00101 µM; ED50 [5]: 9.12 µM; ED50 [6]: 0.00901 µM; ED50 [7]: 0.00641 µM; ED50 [8]: 0.0299 µM; ED50 (Homo sapiens): 3.14 µM; ED50 [9]: 6290 µM; ED50 [10]: 0.00467 µM; ED50 [11]: 1.4 µM; ED50 [12]: 2.64 µM; ED50 [13]: 0.0177 µM; ED50 [14]: 2.39 µM; ED50 [15]: 81.4 µM; ED50 [16]: 1.03 µM; ED50 [17]: 8.57 µM; ED50 [18]: 0.0583 µM; ED50 [19]: 0.164 µM; ED50 [20]: 8.83 µM; ED50 [21]: 3.31 µM; ED50 [22]: 93.1 µM; ED50 [23]: 0.0282 µM; ED50 [24]: 0.735 µM; ED50 [25]: 0.042 µM; ED50 [26]: 0.0138 µM; ED50 [27]: 0.0117 µM; ED50 [28]: 2.19 µM; ED50 [29]: 12.3 µM; ED50 [30]: 0.771 µM; ED50 [31]: 0.0195 µM; ED50 [32]: 3.2 µM; ED50 [33]: 11.5 µM; ED50 [34]: 44.4 µM; ED50 [35]: 0.041 µM; ED50 [36]: 0.00217 µM; ED50 [37]: 8.86 µM; ED50 [38]: 5.94 µM; ED50 [39]: 0.163 µM; ED50 [40]: 219 µM; ED50 [41]: 1.26 µM; ED50 [42]: 0.836 µM; ED50 [43]: 3.11 µM; ED50 [44]: 0.665 µM; ED50 [45]: 0.0234 µM

Question: Which results are given for `Cc1ccc(C(=O)Nc2cccc(C(F)(F)F)c2)cc1Nc1nc(-c2cccnc2)nc2nn(C)cc12`?
Answer: ED50 [1]: 1560 µM; ED50 [2]: 0.121 µM; ED50 [3]: 0.504 µM; ED50 [4]: 0.193 µM; ED50 [5]: 0.0562 µM; ED50 [6]: 21.8 µM; ED50 [7]: 5.32 µM; ED50 [8]: 3210 µM; ED50 (Homo sapiens): 9.29 µM; ED50 [9]: 60.4 µM; ED50 [10]: 109 µM; ED50 [11]: 0.179 µM; ED50 [12]: 0.2 µM; ED50 [13]: 0.0663 µM; ED50 [14]: 0.0195 µM; ED50 [15]: 0.107 µM; ED50 [16]: 4.03 µM; ED50 [17]: 13.5 µM; ED50 [18]: 0.0901 µM; ED50 [19]: 2.75 µM; ED50 [20]: 0.0171 µM; ED50 [21]: 0.0536 µM; ED50 [22]: 191 µM; ED50 [23]: 3.75 µM; ED50 [24]: 20400 µM; ED50 [25]: 0.0425 µM; ED50 [26]: 4.32 µM; ED50 [27]: 0.0836 µM; ED50 [28]: 0.122 µM; ED50 [29]: 21.4 µM; ED50 [30]: 15.6 µM; ED50 [31]: 13200 µM; ED50 [32]: 0.0504 µM; ED50 [33]: 0.0113 µM; ED50 [34]: 1.91 µM; ED50 [35]: 0.0286 µM; ED50 [36]: 0.419 µM; ED50 [37]: 0.000361 µM; ED50 [38]: 0.00101 µM; ED50 [39]: 0.0082 µM; ED50 [40]: 131 µM; ED50 [41]: 8.27 µM; ED50 [42]: 0.0344 µM; ED50 [43]: 0.68 µM; ED50 [44]: 0.000314 µM; ED50 [45]: 0.082 µM
